Reference: patent US20040191849A1, “Method for identifying fungicides” (priority 2002, published 2004)

Experiments:
RPI = assay: Spectrophotometric RPI assay, increase in absorption at 290 nm (KM determination); conditions: read-out: KM value; substrate of RPI; Lineweaver-Burk plot; 400 ng of RPI; without coupled enzymes
Description: The measurement was carried out with 400 ng of RPI.
The reaction volume amounted to 700 μl.

Erysiphe graminis = assay: Induction of resistance to Erysiphe graminis in a plant; format: in vivo; conditions: Hordeum vulgaris; inoculated with Erysiphe graminis 4 days after treatment; 100 = maximum activity, 0 = no activity
Description: In the case of Erysiphe graminis, the induction of resistance to this fungus, in a plant, was furthermore tested by way of example. To this end, the plant is inoculated with the pathogen 4 days after treatment of the plant with the test substance. The activity of the substance is given as efficacy in %.

[1] = test system: ribose-phosphate isomerase; conditions: Jung et al., Arch. Biochem. Biophys. 373 (2000) 409-417; cited from earlier work

O=C[C@H](O)[C@H](O)[C@H](O)COP(=O)(O)O [D-ribose-5-phosphate]
Km (RPI): 6.3 mM

COc1ccc(S(=O)(=O)N(C)C)cc1CCC(C)NCC1CC2(CCCC2)Oc2ccccc21.O=C(O)/C=C/C(=O)O (stereo not drawn) [Example 2]
resistance induction (efficacy) (Erysiphe graminis): 50%

phosphate
ribose-phosphate isomerase inhibitor strength [1]: weak
